{"source": "PubChem BioAssay AID180", "about": "(DTP/NCI, 2004)", "system": "BDF1 mice, Adenocarcinoma 755 s.c., tumor weight T/C", "experiment": "NCI In Vivo Anticancer Drug Screen. Data for tumor model Adenocarcinoma 755 (subcutaneous) in B6D2F1 (BDF1) mice", "conditions": "endpoint: mean tumor weight, schedule: Q01DX011 (ip), higher = larger tumour", "method_in_brief": "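Compound activity was tested in mice carrying transplanted tumors. Survival or tumor size was measured, and each value is the treated-group measurement divided by that of the vehicle-treated control group (T/C).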", "key": {"[1]": {"conditions": "dose: 113.0 mg/kg/injection, vehicle: methylcellulose (MC)"}, "[2]": {"conditions": "dose: 25.0 mg/kg/injection, vehicle: saline"}, "[3]": {"conditions": "dose: 15.0 mg/kg/injection, vehicle: methylcellulose (MC)"}, "[4]": {"conditions": "dose: 31.0 mg/kg/injection, vehicle: methylcellulose (MC)"}}, "note": "Where “and” joins values, the source holds several entries; their conditions need not be identical. Equal entries are not always repeated."}
{"smiles": "Cc1c2ccccc2c(C)c2c1ccc1ccccc12", "values": [{"measurement": "T/C", "setting": "dose: 9.0 mg/kg/injection, vehicle: carboxymethylcellulose (CMC)", "value": "63 % of control"}, {"measurement": "T/C", "setting": "dose: 19.0 mg/kg/injection, vehicle: carboxymethylcellulose (CMC)", "value": "54 % of control"}, {"measurement": "T/C", "setting": "dose: 38.0 mg/kg/injection, vehicle: carboxymethylcellulose (CMC)", "value": "51 % of control"}]}
{"smiles": "Cc1ccccc1-c1nc2c(N)nc(N)nc2nc1N", "values": [{"measurement": "T/C", "setting": "dose: 50.5 mg/kg/injection, vehicle: carboxymethylcellulose (CMC)", "value": "83 % of control"}, {"measurement": "T/C", "setting": "dose: 57.0 mg/kg/injection, vehicle: methylcellulose (MC)", "value": "54 % of control and 75 % of control"}, {"measurement": "T/C", "setting": "dose: 101.0 mg/kg/injection, vehicle: carboxymethylcellulose (CMC)", "value": "75 % of control"}, {"measurement": "T/C", "setting": "[1]", "value": "48 % of control and 52 % of control"}, {"measurement": "T/C", "setting": "dose: 202.0 mg/kg/injection, vehicle: carboxymethylcellulose (CMC)", "value": "68 % of control"}, {"measurement": "T/C", "setting": "dose: 225.0 mg/kg/injection, vehicle: methylcellulose (MC)", "value": "82 % of control"}]}
{"smiles": "C[N+](C)(C)c1ncnc2c1ncn2C1CCCCO1", "note": "(centres undefined)", "values": [{"measurement": "T/C", "setting": "dose: 33.0 mg/kg/injection, vehicle: saline", "value": "58 % of control"}, {"measurement": "T/C", "setting": "dose: 100.0 mg/kg/injection, vehicle: saline", "value": "12 % of control"}]}
{"smiles": "O=C(O)C1CCCN1c1ncnc2nc[nH]c12", "note": "(centres undefined)", "values": [{"measurement": "T/C", "setting": "[2]", "value": "115 % of control"}, {"measurement": "T/C", "setting": "dose: 75.0 mg/kg/injection, vehicle: saline", "value": "104 % of control"}]}
{"smiles": "O=C(CCBr)NCCCCNC(=O)CCBr", "values": [{"measurement": "T/C", "setting": "dose: 56.0 mg/kg/injection, vehicle: methylcellulose (MC)", "value": "83 % of control"}, {"measurement": "T/C", "setting": "[1]", "value": "78 % of control"}]}
{"smiles": "CSc1ncc(Br)c(=O)[nH]1", "values": [{"measurement": "T/C", "setting": "[3]", "value": "81 % of control"}, {"measurement": "T/C", "setting": "[4]", "value": "72 % of control"}, {"measurement": "T/C", "setting": "dose: 250.0 mg/kg/injection, vehicle: methylcellulose (MC)", "value": "56 % of control"}]}
{"smiles": "OCCn1cnc2c(SCc3ccccc3Cl)ncnc21", "values": [{"measurement": "T/C", "setting": "dose: 15.0 mg/kg/injection, vehicle: carboxymethylcellulose (CMC)", "value": "77 % of control"}, {"measurement": "T/C", "setting": "dose: 25.0 mg/kg/injection, vehicle: methylcellulose (MC)", "value": "97 % of control"}, {"measurement": "T/C", "setting": "dose: 30.0 mg/kg/injection, vehicle: carboxymethylcellulose (CMC)", "value": "49 % of control"}, {"measurement": "T/C", "setting": "dose: 60.0 mg/kg/injection, vehicle: carboxymethylcellulose (CMC)", "value": "22 % of control"}, {"measurement": "T/C", "setting": "dose: 150.0 mg/kg/injection, vehicle: methylcellulose (MC)", "value": "5 % of control"}]}
{"smiles": "CCCN1CCC(=O)NC1=S", "values": [{"measurement": "T/C", "setting": "[3]", "value": "81 % of control"}, {"measurement": "T/C", "setting": "[4]", "value": "64 % of control"}, {"measurement": "T/C", "setting": "dose: 62.0 mg/kg/injection, vehicle: methylcellulose (MC)", "value": "74 % of control"}, {"measurement": "T/C", "setting": "dose: 125.0 mg/kg/injection, vehicle: methylcellulose (MC)", "value": "93 % of control"}]}
{"smiles": "CS(=O)(=O)OCC1OC(OCc2ccccc2)CC1O", "note": "(centres undefined)", "values": [{"measurement": "T/C", "setting": "[2]", "value": "102 % of control"}]}
{"smiles": "COC1C(OC(=O)/C=C/C=C/C=C/C=C\\C(=O)O)CCC2(CO2)C1C1(C)OC1CC=C(C)C", "note": "(centres undefined)", "values": [{"measurement": "T/C", "setting": "dose: 10.0 mg/kg/injection, vehicle: other", "value": "90 % of control"}, {"measurement": "T/C", "setting": "dose: 20.0 mg/kg/injection, vehicle: other", "value": "98 % of control"}, {"measurement": "T/C", "setting": "dose: 40.0 mg/kg/injection, vehicle: other", "value": "64 % of control"}, {"measurement": "T/C", "setting": "dose: 80.0 mg/kg/injection, vehicle: other", "value": "82 % of control"}, {"measurement": "T/C", "setting": "dose: 160.0 mg/kg/injection, vehicle: other", "value": "74 % of control"}]}
{"smiles": "CC1([CH2][Hg][I])OCCOC1[CH2][Hg][I]", "note": "(centres undefined)", "values": [{"measurement": "T/C", "setting": "dose: 2.5 mg/kg/injection, vehicle: saline", "value": "57 % of control"}, {"measurement": "T/C", "setting": "dose: 5.0 mg/kg/injection, vehicle: saline", "value": "71 % of control"}, {"measurement": "T/C", "setting": "dose: 10.0 mg/kg/injection, vehicle: saline", "value": "57 % of control"}, {"measurement": "T/C", "setting": "dose: 10.9 mg/kg/injection, vehicle: saline", "value": "36 % of control"}, {"measurement": "T/C", "setting": "dose: 11.0 mg/kg/injection, vehicle: carboxymethylcellulose (CMC)", "value": "87 % of control"}, {"measurement": "T/C", "setting": "dose: 20.0 mg/kg/injection, vehicle: saline", "value": "7 % of control"}]}
